Data on 54 substances can be found in patent US9943498B2, “Fe(III) complex compounds for the treatment and prophylaxis of iron deficiency symptoms and iron deficiency anemias” (Vifor (International) AG, priority 2010, dated 2018).

The test system of the assay is Male NMRI (SPF) mice fed a low-iron diet. The assay is described as follows: Fe utilization in iron-deficient mouse model. It counts as in vivo. The protocol:
The excellent Fe utilizations that can be accomplished through the Fe complexes according to the invention were measured by means of the following mouse model.
Male NMRI (SPF) mice (approximately 3 weeks old) were fed a low-iron diet (approx. 5 ppm iron) for approximately 3 weeks. The iron complexes were then administered to them by means of a stomach tube (2 mg iron/kg body weight/day) for 2 times 5 days, with an interruption of 2 days (days 1-5 and 8-12). Utilization on day 15 was calculated from the hemoglobin increase and the body weight increase in accordance with the formula
[formula] • 0.07=Factor for 70 ml blood per kg body weight (BW) • 0.0034=Factor for 0.0034 g Fe/g Hb • Hb1=Hemoglobin level (g/I) on day 1 • Hb2(3)=Hemoglobin level (g/I) on day 8 (or 15) • BW4=body weight (g) on day 1 • BW9(14)=body weight (g) on day 8 (or 15) • Hb1 Control=average hemoglobin level (g/I) on day 1 in the control group, • Hb2(3) Control=average hemoglobin level (g/I) on day 8 (or 15) in the control group, • BW4 Control=average body weight (g) on day 1 in the control group, • BW9(14) Control=average body weight (g) on day 8 (or 15) in the control group, • Fe Dos.=entire administered iron (mg Fe) over 5 or 10 days, • Fe ut.=(Hb2(3)*BW9(14)-Hb1*BW4)*0.07*0.0034 (mg Fe) Δ Utilization=Fe tot. utilized (examined group)—Fe ut. Control group, utilized from food, (mg Fe)

The mark [1] stands for this setting: male NMRI mice on low-iron diet (approx. 5 ppm iron), 2 mg iron/kg body weight/day by stomach tube, days 1-5 and 8-12, utilization on day 15 calculated from hemoglobin and body weight increase versus control group.

For “Tris-(1-(4-Hydroxypiperidin-1-yl)-4-methylpentane-1,3-dione)-iron(III)-complex [Example 64]”, under setting [1], the “Utilization n 15 d (abs. %)” value is reported as 79 abs. %.

Regarding “Tris-(3-acetyl-1-methylpiperidin-2-one)-iron(III)-complex [Example 31]”, the “Utilization n 15 d (abs. %)” value under setting [1] was 71 abs. %.

Regarding “Tris-(3-acetyl-1-methylpyrrolidin-2-one)-iron(III)-complex [Example 28]”, the “Utilization n 15 d (abs. %)” value under setting [1] is 73 abs. %. Same read-out and setting: in the case of “Tris-(2-Fluoro-3-oxo-N-propylbutanamide)-iron(III)-complex [Example 23]” it was 88 abs. %; in that of “Tris-(1-[4-(hydroxymethyl)piperidin-1-yl]butane-1,3-dione)-iron(III)-complex [Example 48]”, 53 abs. %; in that of “Tris-(4-Methoxy-N,N-dimethyl-3-oxobutanamide)-iron(III)-complex [Example 24]”, 70 abs. %. For “Tris-(N-(5-hydroxypentyl)-3-oxobutanamide)-iron(III)-complex [Example 40]”, under “mouse, in vivo”, the “Utilization n 15 d (abs. %)” value is on record as 87 abs. %. For “Tris-(N-hexyl-3-oxobutaneamide)-iron(III) Complex [Example 16]”, the “Utilization n 15 d (abs. %)” value under setting [1] is 60 abs. %. Still for that read-out and setting: the value for “Tris(N,N-dibutyl-3-oxobutaneamide)-iron(III) Complex [Example 8]” was 69 abs. %; that for “Tris-(N-methyl-3-oxobutaneamide)-iron(III) Complex [Example 4]” was 90 abs. %.

Regarding “Tris(3-oxo-2-(piperidin-1-ylcarbonyl)butanenitrile)-iron(III) Complex [Example 5]”, the “Utilization n 15 d (abs. %)” value under setting [1] is 61 abs. %.

With “Tris-(1-[4-(2-hydroxyethyl)piperazin-1-yl]butane-1,3-dione)-iron(III)-complex [Example 52]”, the “Utilization n 15 d (abs. %)” value under setting [1] is recorded as 84 abs. %. On the same count and under the same terms, the value for “Tris-(1-(morpholin-4-yl)butane-1,3-dione)-iron(III)-complex [Example 33]” was 69 abs. %.

For the substance “Tris-(N,N-bis-(2-hydroxyethyl)-3-oxobutaneamide)-iron(III) Complex [Example 12]”, under setting [1], the “Utilization n 15 d (abs. %)” value was 35 abs. %. Consider “Tris-(2-chloro-N-methyl-3-oxobutaneamide)-iron(III) Complex [Example 6]”, for which the “Utilization n 15 d (abs. %)” value (mouse, in vivo) was 57 abs. %. With “Tris-(1-(morpholin-4-yl)pentane-1,3-dione)-iron(III)-complex [Example 62]”, the “Utilization n 15 d (abs. %)” value under setting [1] is 68 abs. %. Same read-out and setting: in the case of “Tris-(N-(2-hydroxyethyl)-N-methyl-3-oxobutanamide)-iron(III)-complex [Example 42]” it was 30 abs. %. With “Tris-(1-(2,6-dimethylmorpholin-4-yl]butane-1,3-dione)-iron(III)-complex [Example 59]”, under setting [1], the “Utilization n 15 d (abs. %)” value is listed as 80 abs. %.

Turning to “Tris-(N,N-dimethyl-3-oxobutaneamide)-iron(III) Complex [Example 3]”, under setting [1], the “Utilization n 15 d (abs. %)” value is reported as 95 abs. %.

For “Tris-(N-(trans-4-hydroxycyclohexyl)-3-oxobutanamide)-iron(III)-complex [Example 55]”, the “Utilization n 15 d (abs. %)” value under setting [1] is reported as 84 abs. %. On the same count and under the same terms, the value for “Tris-(N-(2-hydroxypropyl)-3-oxobutanamide)-iron(III)-complex [Example 43]” was 75 abs. %; that for “Tris(N-butyl-3-oxobutaneamide)-iron(III) Complex [Example 7]” was 41 abs. %. Still for that read-out and setting: the value for “Tris-(3-oxo-N-(propan-2-yl)butanamide)-iron(III)-complex [Example 36]” was 79 abs. %. On the same count and under the same terms, in the case of “Tris-(1-(piperidin-1-yl)-butane-1,3-dione)-iron(III) Complex [Example 9]” it was 54 abs. %; in that of “Tris-(ethyl N-(3-oxobutanoyl)glycinate)-iron(l) complex (Tris((3-Oxo-butyrylamino)ethyl acetate)iron) [Example 20]”, 77 abs. %; in that of “Tris-(1-(4-hydroxypiperidin-1-yl)-butane-1,3-dione)-iron(II) complex [Example 14]”, 68 abs. %.

For the substance “Tris(3-oxoheptaneamide)-iron(III) Complex [Example 10]”, the “Utilization n 15 d (abs. %)” value under setting [1] is listed as 45 abs. %. Same read-out and setting: in the case of “Tris-(N-(3-hydroxypropyl)-3-oxobutanamide)-iron(III)-complex [Example 38]” it was 77 abs. %. Still for that read-out and setting: the value for “Tris-(N-(4-hydroxybutyl)-3-oxobutanamide)-iron(III)-complex [Example 39]” was 66 abs. %; that for “Tris-(N,N,4-Trimethyl-3-oxopentanamide)-iron(III)-complex [Example 25]” was 60 abs. %; that for “Tris-(Ethyl (1-methyl-2-oxopyrrolidin-3-yl)(oxo)acetate)-iron(III)-complex [Example 29]” was 79 abs. %. On the same count and under the same terms, in the case of “Tris(N-methyl-3-oxoheptaneamide)-iron(III) Complex [Example 11]” it was 75 abs. %. “Tris(3-oxopentaneamide)-iron(III) Complex [Example 18]”: the “Utilization n 15 d (abs. %)” value under setting [1] is 81 abs. %.

On to “Tris-(3-oxobutaneamide)-iron(III) Complex [Example 1]”, for which the “Utilization n 15 d (abs. %)” value under setting [1] is on record as 61 abs. %. Same read-out and setting: the value for “Tris-(N-Butyl-3-oxoheptanamide)-iron(III)-complex [Example 63]” was 71 abs. %; that for “Tris-(2-Fluoro-N,N-dimethyl-3-oxobutanamide)-iron(II)-complex [Example 22]” was 78 abs. %; that for “Tris-(4-Methyl-1-(morpholin-4-yl)-pentane-1,3-dione)-iron(III)-complex [Example 26]” was 64 abs. %. Still for that read-out and setting: the value for “Tris-(1-[(3S)-3-hydroxypyrrolidin-1-yl]butane-1,3-dione)-iron(III)-complex [Example 51]” was 78 abs. %; that for “Tris-(1-(4-hydroxypiperidin-1-yl)pentane-1,3-dione)-iron(III)-complex [Example 61]” was 73 abs. %; that for “Tris(N,N-dimethyl-3-oxopentaneamide)-iron(III) Complex [Example 19]” was 73 abs. %. Still for that read-out and setting: in the case of “Tris-(N-(2,3-dihydroxypropyl)-3-oxobutanamide)-iron(III)-complex [Example 46]” it was 78 abs. %.

For the substance “Tris-(1-(3-hydroxypiperidin-1-yl)butane-1,3-dione)-iron(III)-complex [Example 47]”, the “Utilization n 15 d (abs. %)” value under setting [1] was 61 abs. %.

As for “Tris-(4-Methoxy-1-(morpholin-4-yl)butane-1,3-dione)-iron(III)-complex [Example 27]”, the “Utilization n 15 d (abs. %)” value under setting [1] is on record as 88 abs. %.

For the substance “Tris-(N-Cyclopropyl-3-oxobutanamide)-iron(III)-complex [Example 35]”, the “Utilization n 15 d (abs. %)” value under setting [1] was 44 abs. %.

Turning to “Tris-(N-butyl-N-methyl-3-oxobutaneamide)-iron(ill) Complex [Example 13]”, the “Utilization n 15 d (abs. %)” value under setting [1] is given as 71 abs. %. The same measure, in the same setting: the value for “Tris-(N,N-diethyl-3-oxobutaneamide)-iron(III) Complex [Example 2]” was 41 abs. %; that for “Tris(N,N-dimethyl-3-oxoheptaneamide)-iron(III) Complex [Example 17]” was 48 abs. %. Still for that read-out and setting: the value for “Tris-(N-(3-hydroxypropyl)-N-methyl-3-oxobutanamide)-iron(III)-complex [Example 54]” was 76 abs. %. “Tris-(N-(2-Hydroxyethyl)-N,4-dimethyl-3-oxopentanamide)-iron(11)-complex [Example 65]”: the “Utilization n 15 d (abs. %)” value under setting [1] was 73 abs. %. Regarding “Tris-(3-oxo-N,N-dipropylbutaneamide)-iron(III) Complex [Example 15]”, the “Utilization n 15 d (abs. %)” value under setting [1] is listed as 68 abs. %. On to “Tris-(N-(morpholin-4-yl)-3-oxobutanamide)-iron(III)-complex [Example 60]”, for which the “Utilization n 15 d (abs. %)” value under setting [1] is 80 abs. %. Same read-out and setting: the value for “Tris-(N-(2-methoxyethyl)-3-oxobutanamide)-iron(III)-complex [Example 34]” was 32 abs. %; that for “Tris-(ethyl 4-(dimethylamino)-2,4-dioxobutanoate)-iron(III)-complex [Example 32]” was 81 abs. %. Take “Tris-(N-(1-hydroxypropan-2-yl)-3-oxobutanamide)-iron(III)-complex [Example 44]”: the “Utilization n 15 d (abs. %)” value (mouse, in vivo) is recorded as 73 abs. %.
